Reference: BindingDB's records for doi:10.1111/cbdd.12708 (North-West University, 2016)

Tests used:
[1] = target: T1, Amine oxidase [flavin-containing] A (Homo sapiens, UniProt P21397); assay: MAO Inhibition Assay
T1 sequence (P21397 whole entry): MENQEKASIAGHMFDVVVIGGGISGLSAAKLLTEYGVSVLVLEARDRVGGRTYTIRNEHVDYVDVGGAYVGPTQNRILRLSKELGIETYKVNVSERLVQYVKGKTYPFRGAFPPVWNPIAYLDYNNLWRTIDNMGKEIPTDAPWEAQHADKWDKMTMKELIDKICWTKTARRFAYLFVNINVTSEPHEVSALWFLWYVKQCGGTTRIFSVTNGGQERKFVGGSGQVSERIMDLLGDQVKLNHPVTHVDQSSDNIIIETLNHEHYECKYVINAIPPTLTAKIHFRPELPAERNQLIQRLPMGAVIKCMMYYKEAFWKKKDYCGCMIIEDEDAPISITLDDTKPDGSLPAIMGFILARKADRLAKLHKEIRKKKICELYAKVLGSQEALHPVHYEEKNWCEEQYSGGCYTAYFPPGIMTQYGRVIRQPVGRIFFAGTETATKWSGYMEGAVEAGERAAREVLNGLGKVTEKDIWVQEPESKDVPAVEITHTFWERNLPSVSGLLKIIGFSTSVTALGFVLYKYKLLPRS
Experimental: (§1) The protocol for measuring IC50 values for the inhibition of MAO-A and MAO-B has been reported in detail in a recent publication (26). The recombinant human MAO enzymes were used, and kynuramine served as non-selective MAO substrate. The MAOs oxidize kynuramine to ultimately yield a fluorescent metabolite, 4-hydroxyquinoline, which was measured by fluorescence spectrophotometry (kex = 310; kem = 400 nm).

[2] = target: T2, Amine oxidase (Homo sapiens, UniProt Q8TBI1); assay: MAO Inhibition Assay
T2 sequence (Q8TBI1 whole entry): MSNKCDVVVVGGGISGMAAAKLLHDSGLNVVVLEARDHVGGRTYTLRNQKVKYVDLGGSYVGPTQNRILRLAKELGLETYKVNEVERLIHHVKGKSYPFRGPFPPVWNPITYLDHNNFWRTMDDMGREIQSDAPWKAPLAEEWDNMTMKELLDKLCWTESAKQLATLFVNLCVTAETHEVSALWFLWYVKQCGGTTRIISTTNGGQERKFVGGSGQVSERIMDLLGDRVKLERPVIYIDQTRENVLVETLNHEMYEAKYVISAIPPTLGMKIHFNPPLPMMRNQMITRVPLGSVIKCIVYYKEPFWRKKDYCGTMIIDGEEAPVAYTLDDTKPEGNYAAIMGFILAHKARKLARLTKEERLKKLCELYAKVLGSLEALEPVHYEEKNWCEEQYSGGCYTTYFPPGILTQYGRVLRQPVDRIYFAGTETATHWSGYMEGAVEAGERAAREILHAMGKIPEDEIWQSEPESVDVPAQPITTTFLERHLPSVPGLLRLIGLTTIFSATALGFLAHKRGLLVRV
Experimental: as §1

Row | Compound | IC50 [1] | IC50 [2]
1 | CC(C)=CCC(O)C1=CC(=O)c2c(O)ccc(O)c2C1=O (centres undefined) [5,8-dihydroxy-2-(1-hydroxy-4-methylpent-3-enyl)naphthalene-1,4-dione] | 1.5 µM | 1.01 µM
2 | O=C1C(Cl)=C(OCCCCO)C(=O)c2ccccc21 [2-chloro-3-(4-hydroxybutoxy)-1,4-dihydronaphthalene-1,4-dione (5h)] | 5.06 µM | 3.06 µM
3 | O=C1C=CC(=O)c2ccccc21 [1,4-dihydronaphthalene-1,4-dione] | 3.43 µM | 8.4 µM
4 | COC1=CC(=O)c2ccccc2C1=O | 20.4 µM | 24.8 µM
5 | O=C1C=CC(=O)c2c(O)ccc(O)c21 [5,8-dihydroxy-1,4-naphthoquinone] | – | 0.86 µM
6 | O=C1C=CC(=O)c2c(O)cccc21 [5-hydroxy-1,4-dihydronaphthalene-1,4-dione] | 1.71 µM | 4.36 µM
7 | O=C1C(Cl)=C(Cl)C(=O)c2ccccc21 [2,3-dichloro-1,4-dihydronaphthalene-1,4-dione] | 2 µM | 2.61 µM
8 | O=C1C(O)=C(Cl)C(=O)c2ccccc21 [2-chloro-3-hydroxy-1,4-dihydronaphthalene-1,4-dione (5g)] | – | 3.45 µM
9 | CC1=CC(=O)c2ccccc2C1=O [Vitamin K3] | 10.2 µM | 3.02 µM
10 | CC1=CC(=O)c2c(O)cccc2C1=O | 4.91 µM | 1.09 µM
11 | CC1=C(CCl)C(=O)c2ccccc2C1=O [2-(chloromethyl)-3-methyl-1,4-dihydronaphthalene-1,4-dione (5f)] | – | 10.8 µM
